Data: patent publication US7731994B2, “Pharmaceutical composition for protecting neurons comprising extract of lithospermum erythrothizon SIEB. ET. Zucc or acetylshikonin isolated therefrom as an effective ingredient” (Industry Academic Cooperation Foundation of Kyunghee …, priority 2007, dated 2010)
“Also recorded” adds a separate entry of the source.

What was measured:
[1] = tested on: rats with local brain ischemia induced by middle cerebral arterial occlusion; assay: Defensive effect in rats with local brain ischemia induced by middle cerebral arterial occlusion (TTC staining, infarct volume); format: in vivo, Sprague-dawley male rats; details: right after and 120 minutes after brain ischemia was induced, MCAo 120 min, 22 hours reperfusion
Procedure: Sprague-dawley male rats at 8 weeks having the weight of 280 g-300 g were purchased from Samtako, Inc., Korea. The rats were supplied with feed and water enough and adapted to the experimental environment for one week. Middle cerebral arterial occlusion was performed by intraluminal suture method based on the method of Zea longa, et al (Zea longa, et al., Stroke, 20, pp 84-91, 1989). Once middle cerebral artery of a rat is closed, blood flow is interrupted around middle cerebral arterial region so that oxygen and other energy source are exhausted, leading to cell death. In particular, tissue necrosis is observed in the center of the middle cerebral arterial region, striatum and temporal lobe, which is so called 'ischemic core'. Although not middle cerebral arterial region, the neighboring cells begin to be auto-destroyed, which is called '[…] penumbra'. 3 hours after blocking middle cerebral artery, necrosis starts and from 6 hours after blocking, cerebral ischemia is developed. The progress of cerebral ischemia continues for 24 hours after middle cerebral artery was closed for 120 minutes, and on the 3rd day, it reaches the highest degree. To measure the level of cerebral ischemia, it is necessary to measure correlated infarct volume (mm^3). […] Blood sugar and blood gas were measured from the blood sample. […]

[2] = tested on: BV-2 cells activated by lipopolysaccharide; assay: NO generation (Griess reagent) in BV-2 cells activated by lipopolysaccharide; format: cell-based; details: 100 ng/ml lipopolysaccharide
Procedure: (§1) To investigate the effect of acetylshikonin on the activation of microglia cells which are macrophages in brain, NO generation was measured in BV-2 cells and primary microglia cells which are neuroglia cells, activated by lipopolysaccharide according to the previously reported methods with slight modifications (Min Kim J, et al., Neuroreport, 14(15), pp1941-1944, 2003).
(§2) BV-2 cells (Lab. of Dr. Eui-Ju Choi, Korea University) were maintained in DMEM (Dulbeccols Modified Eagle Medium, Gibco-BRL, England) supplemented with 10% FBS (Fetal Bovine Serum, Gibco-BRL, England) and 1% penicillin-streptomycin (Gibco-BRL, England). To obtain the primary microglia cells, brain cells were separated from the brain extracted from Sprague-Dawley rat (Taconic, Japan) at less than 1 week from the birth and the cells were cultured for approximately 2 weeks in DMEM having the same composition with the one used for BV-2 cell culture in a 75T flask and then the primary microglia cells were recovered. BV-2 cells and the primary microglia cells were distributed into a 96 well plate at the concentration of […] and then cultured in a 37° C., 5% CO2 incubator for overnight. […] OD570 was measured by Elyzerleader (Moleulat Device, USA) and the concentration was calculated by considering the level of sodium nitrite as standard.

[3] = tested on: primary microglia cells activated by lipopolysaccharide; assay: NO generation (Griess reagent) in primary microglia cells activated by lipopolysaccharide; format: cell-based, Sprague-Dawley rat; details: 100 ng/ml lipopolysaccharide
Procedure: as §1, §2

[4] = tested on: iNOS mRNA; assay: RT-PCR of iNOS mRNA expression in primary microglia cells activated by lipopolysaccharide; format: cell-based, Sprague-Dawley rat; details: 100 ng/ml lipopolysaccharide co-treated with 0.1, 1 uM, 24 hours
Procedure: To investigate the inhibition of iNOS mRNA expression by acetylshikonin, […] was performed.
The primary microglia cells cultured in DMEM supplemented with 10% FBS and 1% penicillin-streptomycin were distributed in a 6 well plate at the concentration of 4×10^6 cells/well, followed by culture for 24 hours. 100 ng/ml of lipopolysaccharide and 0.1, 1 uM of acetylshikonin were co-treated thereto, followed by activation of the cells for 24 hours. The control group was not treated with lipopolysaccaride. After 24 hours of activation, the culture medium was discarded and the cells were washed with cold PBS ([…]), to which trypsin was treated. 1 ml of PBS containing the cells was obtained, followed by centrifugation at 12,000 rpm for 2 minutes to separate the cells. The cells were lysed in RNA separation solution (easyblue) to extract RNA from the cells, followed by centrifugation at 12,000 rpm for 15 minutes. After treating chloroform, centrifugation was performed again at 13,000 rpm for 25 minutes and the supernatant was obtained and washed with isopropanol to extract RNA. cDNA was synthesized using 5 ug of the RNA and 5 μmol of primer at 45° C., followed by PCR. […]

[5] = tested on: IL-1beta mRNA; assay: RT-PCR of IL-1beta mRNA expression in primary microglia cells activated by lipopolysaccharide; format: cell-based, Sprague-Dawley rat; details: 100 ng/ml lipopolysaccharide co-treated with 0.1, 1 uM, 24 hours
[6] = tested on: TNF-alpha mRNA; assay: RT-PCR of TNF-alpha mRNA expression in primary microglia cells activated by lipopolysaccharide; format: cell-based, Sprague-Dawley rat; details: 100 ng/ml lipopolysaccharide co-treated with 0.1, 1 uM, 24 hours
[7] = tested on: iNOS; assay: Western blot of iNOS expression in primary microglia cells activated by lipopolysaccharide; format: cell-based, Sprague-Dawley rat; details: 100 ng/ml lipopolysaccharide co-treated with 0.1, 1 uM, 24 hours
Procedure: (§3) Western blot analysis was performed to investigate the inhibition of iNOS expression by acetylshikonin.
(§4) The primary microglia cells cultured in DMEM supplemented with 10% FBS and 1% penicillin-streptomycin were distributed in a 6 well plate at the concentration of 4×10^6 cells/well, followed by culture for 24 hours. 100 ng/ml of lipopolysaccharide and 0.1, 1 uM of acetylshikonin were co-treated thereto, followed by activation of the cells for 24 hours. The control group was not treated with lipopolysaccaride. After 24 hours of activation, the culture medium was discarded and the cells were washed with cold PBS, to which trypsin was treated. 1 ml of PBS containing the cells was obtained, followed by centrifugation at 12,000 rpm for 2 minutes to separate the cells. The cells were loaded in 50 μl of triple lysis buffer to decompose all the cell membranes and then centrifugation was performed at 12,000 rpm for 30 minutes to obtain supernatant, a protein layer. The obtained supernatant was diluted and protein was quantified by Bradford method. After quantification, an equal amount of protein proceeded onto 8% polyacrylamide gel electrophoresis. The separated proteins from the electrophoresis were transferred onto Hybond ECL nitrocellulose membrane, leading to the reaction with primary and secondary antibodies of iNOS and IL-1beta. ECL examination was performed.

[8] = tested on: IL-1beta; assay: Western blot of IL-1beta expression in primary microglia cells activated by lipopolysaccharide; format: cell-based, Sprague-Dawley rat; details: 100 ng/ml lipopolysaccharide co-treated with 0.1, 1 uM, 24 hours
Procedure: as §3, §4

[9] = 24 hours, 0.1, 0.5 and 1 uM tested, inhibition stated at 1 uM
[10] = 24 hours, 0.5 mM positive control

Row | Structure (SMILES) | protective effect on brain tissue damage, compared with the control ([1]; 1 mg/kg orally) [%] | protective effect on brain tissue damage, compared with the control ([1]; 3 mg/kg orally) [%] | NO generation [2, 9] | NO generation [3, 9] | expression of mRNA of iNOS [4] | expression of mRNA of IL-1beta [5] | expression of mRNA of TNF-alpha [6] | expression of iNOS (protein) [7] | expression of IL-1beta (protein) [8] | NO generation [2, 10] | NO generation [3, 10]
1 | CC(=O)O[C@H](CC=C(C)C)C1=CC(=O)c2c(O)ccc(O)c2C1=O [acetylshikonin] | ~46.88 | 68.75 | inhibited the generation of nitric oxide dose dependently; also recorded: inhibition of NO generation | inhibited the generation of nitric oxide dose dependently; also recorded: inhibition of NO generation | inhibited | inhibited | inhibited | inhibited | inhibited | – | –
2 | CNC(=N)NCCC[C@H](N)C(=O)O [positive control, N super(G)-monomethyl-L-arginine, reference compound] | – | – | – | – | – | – | – | – | – | inhibition of NO generation | inhibition of NO generation
